Series [1] has as its system CYP3A4. Description: Plasma 4β-hydroxycholesterol Day 14/Day 1 ratio (CYP3A4 induction). The format is in vivo, human. Conditions: repeated doses up to 20 mg BID, 14 days. Here is the method:
The plasma 4β-hydroxycholesterol on Day 14 versus Day 1 pre-dose concentration ratios were calculated to evaluate the potential for CYP3A4 enzyme induction by Compound 1 after repeated doses in Part 2.
PK population included all participants exposed to Compound 1 with no major or critical deviations related to Compound 1 and for whom PK data were considered sufficient and interpretable. PK parameters were summarized by descriptive statistics for each dose level group. Distribution of Tmax values was represented by histogram plots for each dose level group. In Part 1a, dose proportionality was assessed using a linear model on Cmax, AUClast and AUC. […] Steady state was assessed on Ctrough using a non-linear model. Accumulation was assessed using a linear model on log-transformed accumulation ratio. Dose proportionality was assessed using a power model on Cmax and AUCtau on Day 1 and Day 14, separately. […] In Part 1b, CSF concentration was described by dose level group and CSF to plasma unbound concentration ratios calculated were described in the same way. 4β-hydroxycholesterol on Day 14 versus Day 1 pre-dose concentration ratios were summarized using descriptive statistics by dose level group and point estimates with 90% confidence interval (90% CI) for the geometric mean of the log-transformed Day14/Day1 ratio was calculated in Part 2. […]

A short description of series [2]: CSF concentration, CSF-to-unbound plasma concentration ratio (Part 1b). The format is in vivo, healthy adult participants (human). Particulars: human; for Kp: oral. Here is the method:
Compound 1 concentrations in CSF were measured after single oral dosing in two dedicated cohorts in Part 1b. Lumbar puncture was performed for CSF collection and only one CSF sample per participant was collected on Day 1. Given the limited number of CSF PK samples that were collected in this study, CSF PK parameters were not determined; instead, Compound 1 concentrations in CSF were reported and concentration ratio between CSF and unbound plasma was calculated.
PK population included all participants exposed to Compound 1 with no major or critical deviations related to Compound 1 and for whom PK data were considered sufficient and interpretable. PK parameters were summarized by descriptive statistics for each dose level group. Distribution of Tmax values was represented by histogram plots for each dose level group. In Part 1a, dose proportionality was assessed using a linear model on Cmax, AUClast and AUC. In Part 2, all PK analyses were performed separately for each regimen (OD and BID). Steady state was assessed on Ctrough using a non-linear model. Accumulation was assessed using a linear model on log-transformed accumulation ratio. Dose proportionality was assessed using a power model on Cmax and AUCtau on Day 1 and Day 14, separately. Variance components of log-transformed Cmax and AUCtau were estimated using a linear model. In Part 1b, CSF concentration was described by dose level group and CSF to plasma unbound concentration ratios calculated were described in the same way. 4β-hydroxycholesterol on Day 14 versus Day 1 pre-dose concentration ratios were summarized using descriptive statistics by dose level group and point estimates with 90% confidence interval (90% CI) for the geometric mean of the log-transformed Day14/Day1 ratio was calculated in Part 2.

A short description of series [3]: 6-month rat toxicology study (NOAEL exposure). The format is in vivo.
[4] abbreviates: 20 mg QD vs 6-month rat toxicology study.

Molecules are shown by their SMILES. Read-outs that look alike come from different tables or passages of the source.

The term Cmax denotes the highest concentration seen after dosing. Take `CC(C)(C(=O)N1CCOc2c(C#N)cncc2C1)C(F)F` [Compound 1, 4-(3,3-difluoro-2,2-dimethyl-propanoyl)-3,5-dihydro-2H-pyrido[3,4-f] [1,4]oxazepine-9-carbonitrile]: the “Potential for CYP3A4 induction” value in series [1] is reported as “no potential for CYP3A4 induction”. Besides, the “CSF/unbound plasma ratio, mean values” in series [2] is reported as about 1.0. The Kp in series [2] (CSF / unbound plasma, Part 1b single dose fed, [T1H-T3H], read-out: CSF-to-unbound Plasma concentration ratio, geometric mean) turned out to be 0.817; in series [2] (CSF / unbound plasma, Part 1b single dose fed, [T1H-T3H], read-out: CSF-to-unbound Plasma concentration ratio, mean), 0.84; in series [2] (CSF / unbound plasma, Part 1b single dose fed, [T1H-T3H], read-out: CSF-to-unbound Plasma concentration ratio, median), 0.732; in series [2] (CSF / unbound plasma, Part 1b single dose fed, [T4H-T6H], read-out: CSF-to-unbound Plasma concentration ratio, geometric mean), 0.755; in series [2] (CSF / unbound plasma, Part 1b single dose fed, [T4H-T6H], read-out: CSF-to-unbound Plasma concentration ratio, mean), 0.804; in series [2] (CSF / unbound plasma, Part 1b single dose fed, [T4H-T6H], read-out: CSF-to-unbound Plasma concentration ratio, median), 0.825. Moreover, the Kp is 1.27 in series [2] (CSF / unbound plasma, Part 1b single dose fed, [T5H-T16H], read-out: CSF-to-unbound Plasma concentration ratio, geometric mean); 1.27 in series [2] (CSF / unbound plasma, Part 1b single dose fed, [T5H-T16H], read-out: CSF-to-unbound Plasma concentration ratio, mean); 1.31 in series [2] (CSF / unbound plasma, Part 1b single dose fed, [T5H-T16H], read-out: CSF-to-unbound Plasma concentration ratio, median); about 0.8 in series [2] (CSF / unbound plasma, time intervals [T1H-T3H] or [T4H-T6H], read-out: Ratio CSF to unbound plasma); about 1 in series [2] (CSF and unbound plasma, read-out: CSF/unbound plasma ratio, mean values); about 1.3 in series [2] (CSF and unbound plasma, time interval [T8H-T10H], read-out: Ratio CSF to unbound plasma). Moreover, in series [3] (15 mg BID vs 6-month rat toxicology study), the “Human Cmax and AUCtau, fold lower than exposure at NOAEL” value is reported as 10 fold. Besides, the “Human AUC0-24 h, fold lower than AUC0-24 at rat NOAEL” value in series [3] (20 mg BID vs female rats) is under 8 fold. The “Human Cmax, fold lower than Cmax at rat NOAEL” value in series [3] (20 mg BID vs female rats) is reported as under 10 fold. Also, the “Human AUC0-24, fold lower than exposure at NOAEL” value in series [3] (setting [4]) stood at 17 fold. In series [3] (setting [4]), the “Human Cmax, fold lower than exposure at NOAEL” value is 15 fold. Besides, the highest level in series [3] (rat, in vivo, female rats, end of Week 26, 6-month study) (Cmax) was 13.1 µM. For the same compound, the AUC(0-t) in series [3] (rat, in vivo, female rats, end of Week 26, 6-month study, read-out: AUC0-24 at the NOAEL) is 126 µM·h.
